# Data: publication PMC6984337, “Targeting the Mycobacterium tuberculosis transpeptidase LdtMt2 with cysteine-reactive inhibitors including ebselen” (Chemical Communications (Cambridge, England), 2019)
# Target: T1, LdtMt2 (Mycobacterium tuberculosis, UniProt I6Y9J2)
# Experiment: Fluorescence-based (fluorogenic probe 1) inhibition assay for LdtMt2
# Assay type: biochemical
# Settings: IC50 (μM, mean ± SD) 0 min
# T1 sequence (I6Y9J2 56-408): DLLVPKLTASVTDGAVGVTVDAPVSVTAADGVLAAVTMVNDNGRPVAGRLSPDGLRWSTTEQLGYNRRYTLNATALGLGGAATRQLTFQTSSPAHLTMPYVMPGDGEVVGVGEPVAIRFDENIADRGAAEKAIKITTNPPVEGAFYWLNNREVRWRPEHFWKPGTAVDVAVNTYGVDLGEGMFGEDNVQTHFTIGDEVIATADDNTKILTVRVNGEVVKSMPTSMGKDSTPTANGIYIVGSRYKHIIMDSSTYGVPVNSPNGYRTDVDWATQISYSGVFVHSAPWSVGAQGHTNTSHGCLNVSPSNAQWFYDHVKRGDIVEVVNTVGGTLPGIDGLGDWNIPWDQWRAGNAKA
row,SMILES,IC50 [µM]
1,"O=C1C=CC(=O)N1 [Compound 3, Maleimide]",158 ± 9

# Same assay, conditions: IC50 (μM, mean ± SD) 10 min
row,SMILES,IC50 [µM]
1,"O=C1C=CC(=O)N1 [Compound 3, Maleimide]",48.3 ± 3.6

# Same assay, conditions: IC50 (μM, mean ± SD) 10 min, 10 min pre-incubation prior to addition of fluorogenic probe 1; LdtMt2 100 nM, probe 1 25 μM
row,SMILES,IC50 [µM]
1,"CN(C)C(=S)SSC(=S)N(C)C [Compound 8, Thiram]",2.93 ± 0.11
2,"c1ccc(SSc2ccccn2)nc1 [Compound 9, Aldrithiol]",5.35 ± 0.21
3,"O=c1c2ccccc2[se]n1-c1ccccc1 [Compound 4, Ebselen]",0.159 ± 0.077
4,"O=[Se](O)c1ccccc1 [Compound 7, PhSe(O)OH]",136 ± 17
5,"Br[Se]c1ccccc1 [Compound 5, PhSeBr]",5.05 ± 0.35
6,"CCC(C)SSc1ncc[nH]1 (stereo not drawn) [Compound 10, PX-12]",9.56 ± 0.25
7,"Cl[Se]c1ccccc1 [Compound 6, PhSeCl]",24.6 ± 0.9

# Same assay, conditions: IC50 (μM, mean ± SD) 60 min
row,SMILES,IC50 [µM]
1,"O=C1C=CC(=O)N1 [Compound 3, Maleimide]",18.6 ± 0.7

# Same assay, conditions: IC50 (μM, mean ± SD) 60 min; LdtMt2 100 nM, probe 1 25 μM
row,SMILES,IC50 [µM]
1,"CN(C)C(=S)SSC(=S)N(C)C [Compound 8, Thiram]",0.78 ± 0.029
2,"c1ccc(SSc2ccccn2)nc1 [Compound 9, Aldrithiol]",1.61 ± 0.03
3,"O=c1c2ccccc2[se]n1-c1ccccc1 [Compound 4, Ebselen]",0.143 ± 0.014
4,"O=[Se](O)c1ccccc1 [Compound 7, PhSe(O)OH]",93.2 ± 9.3
5,"Br[Se]c1ccccc1 [Compound 5, PhSeBr]",2.02 ± 0.61
6,"CCC(C)SSc1ncc[nH]1 (stereo not drawn) [Compound 10, PX-12]",2.48 ± 0.1
7,"Cl[Se]c1ccccc1 [Compound 6, PhSeCl]",20 ± 1.2

# Same assay, conditions: read-out: IC50 (μM, mean ± SD) 10 min; 10 min pre-incubation prior to addition of fluorogenic probe 1; LdtMt2 100 nM, probe 1 25 μM
row,SMILES,IC50 [µM]
1,"NC(=O)CI [Compound 2, Iodoacetamide]",32.5 ± 1.4

# Same assay, conditions: read-out: IC50 (μM, mean ± SD) 60 min; LdtMt2 100 nM, probe 1 25 μM
row,SMILES,IC50 [µM]
1,"NC(=O)CI [Compound 2, Iodoacetamide]",10.1 ± 0.7

# Same assay, conditions: without pre-incubation prior to addition of fluorogenic probe 1; LdtMt2 100 nM, probe 1 25 μM; read-out: IC50 (μM, mean ± SD) 0 min
row,SMILES,IC50 [µM]
1,"CN(C)C(=S)SSC(=S)N(C)C [Compound 8, Thiram]",7.01 ± 0.29
2,"c1ccc(SSc2ccccn2)nc1 [Compound 9, Aldrithiol]",22.1 ± 0.7
3,"O=c1c2ccccc2[se]n1-c1ccccc1 [Compound 4, Ebselen]",0.36 ± 0.02
4,"O=[Se](O)c1ccccc1 [Compound 7, PhSe(O)OH]",309 ± 7
5,"Br[Se]c1ccccc1 [Compound 5, PhSeBr]",11.8 ± 1.3
6,"CCC(C)SSc1ncc[nH]1 (stereo not drawn) [Compound 10, PX-12]",27.2 ± 0.5
7,"Cl[Se]c1ccccc1 [Compound 6, PhSeCl]",62.8 ± 2.2
8,"NC(=O)CI [Compound 2, Iodoacetamide]",129 ± 14

# Target: T1, LdtMt2
# Experiment: High-throughput (RapidFire) protein mass spectrometry of covalent adduct formation with LdtMt2
# Assay type: biochemical
# Settings: LdtMt2 3 µM with two equivalents (6 µM) of inhibitor, 50 mM Tris pH 7.5
# Procedure: Inhibition assays were performed in flat-bottomed 384-well μ-clear plates (Greiner Bio-One) with a final volume of 25 μL, and using 50 mM HEPES, pH 7.5 containing 0.01% (v/v) Triton X-100 as the assay buffer. LdtMt2 (100 nM) was treated with a range of inhibitor concentrations, and the mixture was incubated for 0, 10 or 60 minutes. Following this pre-incubation, fluorogenic probe 1 (25 μM)2 was added, and the mixture was incubated for a further 30 minutes. The fluorescence signal was then measured using a BMG Labtech PHERAstar FS with λex = 480 nm and λem = 520 nm using the bottom optic. All reactions were carried out in quadruplicate, and controls without inhibitor and without LdtMt2 were included. Inhibition results were normalised using the no inhibitor and no enzyme controls. Dose-response analysis was performed using Prism (GraphPad) with the log(inhibitor) vs normalized response -- variable slope model. Data points were plotted as mean average with the standard deviation as the […]
# Mass spectrometric analyses were performed using an Agilent 6550 system equipped with a RapidFire sampler. Samples (100 µL) were prepared in 50 mM Tris, pH 7.5, consisting of 3 µM LdtMt2 and either 6 µM or 30 µM of the relevant inhibitor, as […]
# Purified LdtMt2 Δ1-55 (approx. 1 mM; His-tag cleaved) in 50 mM Tris, pH 8.0, 100 mM NaCl was used for crystallography. Crystallisation trials were set up using the sitting drop vapour diffusion method with the JCSG+ broad screen (Molecular Dimensions). A structure of LdtMt2 Δ1-55 (PDB 6RLG) was solved using a crystal […]
# Figure S3. MS analysis of the apparent covalent adducts formed with LdtMt2 and the cysteine-reactive inhibitors. […]
# conditions used for mass spectrometry are described in the Experimental Details […]
# (1 picture or pasted object on this page, not shown here)
row,SMILES,time to complete reaction (adduct formation) with LdtMt2 [min]
1,"CN(C)C(=S)SSC(=S)N(C)C [Compound 8, Thiram]",≤ 45
2,"c1ccc(SSc2ccccn2)nc1 [Compound 9, Aldrithiol]",≤ 10
3,"O=c1c2ccccc2[se]n1-c1ccccc1 [Compound 4, Ebselen]",≤ 1
4,"O=C1C=CC(=O)N1 [Compound 3, Maleimide]",> 82

# Same assay, conditions: after 24 hours, RapidFire MS
row,SMILES,stability of covalent complex with LdtMt2
1,"CN(C)C(=S)SSC(=S)N(C)C [Compound 8, Thiram]",a small amount of unbound protein was observed
2,"C[C@@H](O)[C@H]1C(=O)N2C(C(=O)O)=C([C@H]3CCCO3)S[C@H]12 [Compound 11, Faropenem]",a small amount of unbound protein was observed
